Data published in patent US5512479A, “Method of degrading volatile organochlorides and remediation thereof” (priority 1993, dated 1996).

How the values were obtained:
[1] = tested on: toluene monooxygenase (TMO); test: TCE induced TMO activity with different growth substrates (14C-toluene assay); type: cell-based, Pseudomonas mendocina KR-1; conditions: 40 μM TCE; for factor of TMO activity increase after addition of the substrate (FIG. 4): 3 g/L glutamate, 2 g/L glucose, or 20 mM lactate added after 2.75 hours; for induced TMO activity increase (FIG. 4): growth substrate run, 6 hour period
Experimental: (§1) Radioactivity in the bottles was enumerated by placing the bottles in a liquid scintillation counter. Results were recorded as disintegrations per minute (DPM). […] Non-volatile products were not evaporated from the silica gel during the drying phase, and were enumerated by scintillation counting. Thus, the greater the DPMs, the greater the TMO activity.
(§2) The effect of three growth substrates on TCE induced TMO activity was also established through a series of four runs. Cells were grown overnight as previously described for non-inducing growth: 30° C., 100 RPM, 50 mL cells in 125 mL flask in BSM with either 3 g/L sodium glutamate, 20 mM lactate, or 2 g/L glucose. The cultures were then washed and suspended to an O.D.550 =1.0 in BSM plus 0.3 g/L glutamate, 2.0 mM lactate, and 0.2 g/L glucose, respectively. TCE was then added to a final concentration of 40 μM, vials were sealed, and shaken at 30° C. […] At timed intervals, 10 μL of the air above the reaction mixture was removed from the vials by using a gas-tight syringe, and injected onto a gas chromatograph (Varian 3400; Star Data System) equipped with a 30M VOCOL column (Supelco Inc.: c0.53 mm ID, […] film, helium carrier at 7 mL/min, 100° C. isothermal, injector at 225° C.) and an electron capture detector (GC-ECD; 300° C.) to quantify the TCE remaining in the vial. Relative TCE concentration was enumerated as area counts, greater area counts representing greater amounts of TCE remaining in the vials. Five cell suspensions as described above were supplemented with 1 μM, 10 μM, 20 μM, 40 μM and 80 μM of TCE. A control run not shown in FIG. 3, and performed in the same manner as the other five runs, contained only DMF. Cell suspensions were incubated at 30° C. with shaking, and TMO activity, as described above with respect to Example 1, was determined at timed intervals.

[2] = tested on: toluene monooxygenase (TMO); type: cell-based, Pseudomonas mendocina KR-1; conditions: for TMO Activity (DPM): cells grown 48 hr on growth substrate (Table 1); for % Activity: relative to toluene-grown cells (Table 1)
Experimental: as §1
(§3) To determine the ability of alkanes to assist in the induction of TMO activity in P. mendocina KR-1 and to subsequently degrade TCE, the organism was grown in basal salts medium with hexane, octane and pentane as sole carbon and energy sources.
Cells were grown for 48 hr, washed with BSM, then suspended to an OD550 of 1.0 in BSM. Cells were incubated for 1 hr to allow removal of most residual alkane. They were then subjected to TMO and TCE assays.

[3] = tested on: Pseudomonas mendocina KR-1; test: TCE degradation (TCE bottle assay, gas chromatography); type: cell-based
Experimental: as §2
as §3, with “sources. TMO activity was determined by using the ^14 C-toluene assay and TCE degradation was measured by using a TCE bottle assay, both as described previously.” for “sources.”
Finally, alkane grown cells were analyzed for their ability to degrade TCE by using the TCE bottle assay and cells suspended in BSM to OD550 =2.0. […] Loss of TCE in the control (glucose) sample is thought to be due to induction of TMO by TCE.

[4] = tested on: toluene monooxygenase (TMO); type: cell-based, Pseudomonas mendocina KR-1; conditions: for induction of TMO, in words: substrate added to glutamate-grown cells
Experimental: as §1
A TMO assay was performed on the cells. Then 5 ml of the culture was added to each of four 50 mL serum vials. […] The vials were incubated at 30° C. and sampled, by using a glass syringe, at 1.5 hr and 2.5 hr after substrate addition.

[5] = tested on: Pseudomonas putida; conditions: only upon induction by toluene or phenol; cited from earlier work
[6] = tested on: toluene monooxygenase (TMO); test: TMO activity induced by TCE (14C-toluene assay); type: cell-based, Pseudomonas mendocina KR-1
Experimental: Cells were first grown overnight under non-inducing conditions. Specifically, cells were grown by suspending a small amount of cells from agar plate, or broth media, in a 125 mL flask containing 50 mL of basal salts medium (BSM) containing 3 g/L sodium glutamate with or without 0.1 g/L casamino acids (Difco). Cells were placed on a rotary shaker and shaken at 100 rpm and 30° C. for 16-24 hr. The cells were then centrifuged and washed with BSM. They were subsequently suspended in BSM and glutamate (3 g/L) to an optical density at 550 nm (OD550) of 1.0. Ten mL of cell suspension was added to a 50 mL serum vial, and 10 μL TCE (40 mM) dissolved in dimethylformamide (DMF) was added to a final concentration of 40 μM.
Comparison non-induced samples were prepared by adding only dimethylformamide (10 μL) to replicate 10 mL cell suspensions. The comparison samples contained no TCE. All sample vials were sealed with teflon-coated crimp seals and the cell suspensions were shaken at 25° C.
as §1
Another set of experiments containing five runs was performed to determine the preferred concentration of TCE used to induce the TMO genes in P. mendocina KR-1. TCE degradation was measured by suspending cells in BSM to an OD550 of 1.0. 10 mL of cells were added to 50 mL serum vials and 10 μL of TCE in dimethylformamide was added (final TCE concentration: 1-80 μM). Vials were sealed with teflon-lined crimp seals and shaken at 30° C. At timed intervals, 250 μl of sample was removed from each sample by using a syringe. The sample was mixed with 250 μl BSM to generate a final volume of 0.5 mL and OD550 of 0.5. ^14 C-Toluene assays were then performed on the samples as described previously.

[7] = tested on: Pseudomonas cepacia; conditions: cited from earlier work

CC(O)C(=O)O (stereo not shown) [lactate]
TMO activity up to 2.75 hours (FIG. 4) ([1]; before addition of further substrate): little or no TMO activity | factor of TMO activity increase after addition of the substrate (FIG. 4) [1]: at least 5

CCCCCCCC [Octane]
TMO Activity (DPM) [2]: 3915 DPM | % Activity [2]: 23%

glucose
effect of growth substrate on TCE degradation (FIG. 5) ([3]; 40 μM TCE, 6 hours): greatest effect on TCE degradation | induced TMO activity increase (FIG. 4) [1]: under 5,000 DPM | factor of TMO activity increase after addition of the substrate (FIG. 4) [1]: at least 5

Cc1ccccc1 [Toluene, reference compound]
% Activity [2]: 100% | induction of TMO, in words [4]: only limited activity was observed

CCCCCC [Hexanes]
TMO Activity (DPM) [2]: 4889 DPM | % Activity [2]: 29%

CCCCC [Pentane]
TMO Activity (DPM) [2]: 2079 DPM | % Activity [2]: 12% | TMO Activity (DPM), T = 1.5 hr. ([4]; 1.5 hr after substrate addition, 30° C. (Table 2)): 2480 DPM | TMO Activity (DPM), T = 2.5 hr. ([4]; 2.5 hr after substrate addition, 30° C. (Table 2)): 1293 DPM | TMO Activity (DPM), T = 0 ([4]; T = 0, before substrate addition (Table 2)): 126 DPM | TMO Activity (DPM), T = 1.5 hr., killed cells ([4]; killed (100 μl 1M HCl) + pentane, 1.5 hr (Table 2)): 128 DPM | TMO Activity (DPM), T = 2.5 hr., killed cells ([4]; killed (100 μl 1M HCl) + pentane, 2.5 hr (Table 2)): 121 DPM | TMO Activity (DPM), T = 0, killed cells ([4]; killed (100 μl 1M HCl) + pentane, T = 0 (Table 2)): 126 DPM | induction of TMO, in words [4]: induction of TMO by pentane

N[C@@H](CCC(=O)[O-])C(=O)[O-].[Na+].[Na+] [Gultamate, sodium glutamate, reference compound]
TMO Activity (DPM) [2]: 123 DPM | % Activity [2]: 0.7% | induced TMO activity increase (FIG. 4) [1]: up to 3,500 DPM | factor of TMO activity increase after addition of the substrate (FIG. 4) [1]: at least 5

ClC=C(Cl)Cl [TCE, trichloroethylene]
TCE degradation by Pseudomonas putida PpF1 and B5 [5]: some ability to degrade TCE | percentage of TCE remaining (FIG. 6) ([3]; 6 hours, glucose (2 g/L) added after about 3 hours, 40 µM): about 10% | loss of TCE in the control (glucose) sample (FIG. 7) ([3]; OD550 = 2.0, glucose-grown control): Loss of TCE | TCE degradation (FIG. 6) ([3]; absent any additional inducing substrates): TCE degradation occurs simply by contacting Pseudomonas mendocina cells with TCE | TCE concentrations in response to TMO induction (FIG. 5) ([3]; sealed vials, 6 hours): decreased in response to TMO induction | TMO activity (FIG. 3) ([6]; 1 μM TCE, 4 hour test period): very little TMO activity was measured | TMO activity (FIG. 3) ([6]; 10 μM or more of TCE, after the first half hour): increased dramatically after the first half hour | induced TMO activity over 30 minutes (FIG. 1) ([6]; 40 μM TCE, 25° C., 30 minute period): increased dramatically over the 30 minute time period | TMO activity (FIG. 2) ([6]; 40 μM TCE, first 75 minutes): over 3,000 DPM | further increase of TMO activity (FIG. 2) ([6]; 40 μM TCE, remaining 4 1/2 to 5 hours of six hour experiment): almost two fold | rate of increase of TMO activity (FIG. 1) ([6]; 40 μM TCE, ten minute time interval): substantially two fold rate | induction of TMO activity (FIG. 3) ([6]; 10 and 20 μM TCE): best results with respect to induction of TMO activity | induction of TMO activity (FIG. 3) ([6]; concentrations higher than 10 and 20 μM TCE): quite effective | TMO induction by TCE in glutamate- and glucose-grown cells [1]: rapid induction | TCE degradation by Pseudomonas cepacia G4 ([7]; grown without an inducer): unable to degrade TCE | TCE degradation by Pseudomonas cepacia 5223-PR1 ([7]; recombinant strain): did display the ability to degrade TCE
